Results from patent US20180214463A1, “USE OF PHYTIC ACID OR THE SALTS THEREOF, ALONE OR COMBINED WITH B6 VITAMERS, FOR PREVENTING THE FORMATION OF ADVANCED GLYCATION END-PRODUCT” (UNIVERSITAT DE LES ILLES BALEARS, priority 2015, published 2018).

What was measured:
diabetic patients = test: Clinical trial of phytate (phytin) in diabetic patients: plasma HbA1c and AGEs, urinary phytate; assay type: in vivo, human
formation of AGEs = test: In vitro formation of AGEs (ribose, arginine, lysine, Fe3+; fluorescence at 7 days); assay type: biochemical; conditions: 37° C., vs control without inhibitors
Procedure: In an in vitro study, the inhibiting effect of phytate alone or in combination with pyridoxamine on the formation of AGEs was compared (see FIG. 2). […] In these studies, the formation of AGEs was induced by incubating a reaction mixture containing ribose (200 mM) (taken as the model reducing sugar), 1 mM arginine, 2 mM lysine (as glycation targets), and 2 μM Fe^3 (as a glycation catalyzer) with various concentrations of phytate and pyridoxamine alone or in combination at 37° C. for 7 days (in a 0.2 M phosphate buffer). The quantity of AGEs present at 7 days was determined by fluorescence.

SMILES	decrease in plasma AGEs (diabetic patients; 1,140 mg phytate (as phytin) daily for 3 months, 33 diabetic patients, p<0.001) [%]	decrease in plasma glycated hemoglobin (HbA1c) (diabetic patients; 1,140 mg phytate (as phytin) daily for 3 months, 33 diabetic patients, p=0.017) [%]	increase in the urinary excretion of phytate (diabetic patients; 1,140 mg phytate (as phytin) daily for 3 months, p=0.026) [%]	plasma levels of HbA1c and AGEs after withdrawal (diabetic patients; three months without phytate, after three months of consuming it)	inhibition of the formation of AGEs (formation of AGEs; 1 μM inhibitor alone) [%]	inhibition of the formation of AGEs (formation of AGEs; 2 μM inhibitor alone) [%]	inhibition of the formation of AGEs (formation of AGEs; 2.5 μM inhibitor alone) [%]
O=P(O)(O)O[C@H]1[C@H](OP(=O)(O)O)[C@@H](OP(=O)(O)O)[C@H](OP(=O)(O)O)[C@@H](OP(=O)(O)O)[C@H]1OP(=O)(O)O [phytate, myo-inositol-hexaphosphate]	~25.1	~3.9	33.6	returning to levels similar to the baselines	12.7	19.9	–
Cc1ncc(CO)c(CN)c1O [pyridoxamine]	–	–	–	–	17.5	–	28.2
